ChEMBL document CHEMBL3885861, “Open TG-GATES”

Organism: Rattus norvegicus
Assay: Open TG-GATES - Regimen: Single
Type: toxicity, organism-based, Sprague-Dawley
Parameters: regimen Single, gender Male, age 6 weeks
Details: in vivo, po, 50 mg/kg, route gavage, dose level High; for APTT / Bas / Eos / Fbg / Hb / Ht / Lym / MCH / MCHC / MCV / Mono / Neu / PT / Plat / RBC / Ret / WBC: tissue Blood; for LIVER: tissue Liver; for A/G / ALP / ALT / AST / BUN / CRE / Ca / Cl / DBIL / GLC / IP / K / LDH / Na / PL / RALB / TBIL / TC / TG / TP / gamma-GTP: tissue Plasma

C=C(C)[C@H]1Cc2c(ccc3c2O[C@@H]2COc4cc(OC)c(OC)cc4[C@@H]2C3=O)O1 [ROTENONE]
TERMINAL_BW (3 h): 195.9 g | APTT (3 h): 15.9 s | Bas (3 h): 0% | Eos (3 h): 0.8% | Fbg (3 h): 204.8 mg/dL | Hb (3 h): 13.2 g/dL | Ht (3 h): 40.1% | Lym (3 h): 73.4% | MCH (3 h): 20.7 pg | MCHC (3 h): 32.8% | MCV (3 h): 63.1 fL | Mono (3 h): 9.2% | Neu (3 h): 17.4% | PT (3 h): 12.6 s | Plat (3 h): 124.2 x10_4/uL | RBC (3 h): 636.2 x10_4/ul | Ret (3 h): 8.8% | WBC (3 h): 89.8 x10_2/uL | LIVER (3 h): 8.5 g | A/G (3 h): 2.3 | ALP (3 h): 1894.6 IU/L | ALT (3 h): 39 IU/L | AST (3 h): 79.4 IU/L | BUN (3 h): 13.8 mg/dL | CRE (3 h): 0.4 mg/dL | Ca (3 h): 11.1 mg/dL | Cl (3 h): 103.6 meq/L | DBIL (3 h): 0.008 mg/dL | GLC (3 h): 182.2 mg/dL | IP (3 h): 8.9 mg/dL | K (3 h): 3.9 meq/L | LDH (3 h): 92.6 IU/L | Na (3 h): 140.6 meq/L | PL (3 h): 123.2 mg/dL | RALB (3 h): 3.7 g/dL | TBIL (3 h): 0.036 mg/dL | TC (3 h): 77.4 mg/dL | TG (3 h): 49.4 mg/dL | TP (3 h): 5.3 g/dL | gamma-GTP (3 h): 1 IU/L | TERMINAL_BW (6 h): 197.3 g | APTT (6 h): 16.8 s | Bas (6 h): 0% | Eos (6 h): 0% | Fbg (6 h): 213.4 mg/dL | Hb (6 h): 13.3 g/dL | Ht (6 h): 40.7% | Lym (6 h): 77.8% | MCH (6 h): 20.8 pg | MCHC (6 h): 32.7% | MCV (6 h): 63.7 fL | Mono (6 h): 6.6% | Neu (6 h): 15% | PT (6 h): 12.6 s | Plat (6 h): 136.6 x10_4/uL | RBC (6 h): 638.2 x10_4/ul | Ret (6 h): 9.1% | WBC (6 h): 84.6 x10_2/uL | LIVER (6 h): 8.2 g | A/G (6 h): 2.3 | ALP (6 h): 1068.4 IU/L | ALT (6 h): 41.2 IU/L | AST (6 h): 75 IU/L | BUN (6 h): 11.4 mg/dL | CRE (6 h): 0.4 mg/dL | Ca (6 h): 11.3 mg/dL | Cl (6 h): 103.8 meq/L | DBIL (6 h): 0.01 mg/dL | GLC (6 h): 185.8 mg/dL | IP (6 h): 9.9 mg/dL | K (6 h): 3.9 meq/L | LDH (6 h): 96 IU/L | Na (6 h): 140.6 meq/L | PL (6 h): 145.2 mg/dL | RALB (6 h): 3.7 g/dL | TBIL (6 h): 0.044 mg/dL | TC (6 h): 84.8 mg/dL | TG (6 h): 45.6 mg/dL | TP (6 h): 5.4 g/dL | gamma-GTP (6 h): 0.2 IU/L | TERMINAL_BW (9 h): 196.2 g | APTT (9 h): 16.7 s | Bas (9 h): 0% | Eos (9 h): 0.6% | Fbg (9 h): 221.4 mg/dL | Hb (9 h): 13 g/dL | Ht (9 h): 39.5% | Lym (9 h): 82.2% | MCH (9 h): 21.4 pg | MCHC (9 h): 33% | MCV (9 h): 64.8 fL | Mono (9 h): 4.6% | Neu (9 h): 12.6% | PT (9 h): 12.6 s | Plat (9 h): 137 x10_4/uL | RBC (9 h): 610 x10_4/ul | Ret (9 h): 8.7% | WBC (9 h): 86.6 x10_2/uL | LIVER (9 h): 8 g | A/G (9 h): 2.3 | ALP (9 h): 1128.2 IU/L | ALT (9 h): 30.6 IU/L | AST (9 h): 66.8 IU/L | BUN (9 h): 11.8 mg/dL | CRE (9 h): 0.4 mg/dL | Ca (9 h): 11 mg/dL | Cl (9 h): 104.2 meq/L | DBIL (9 h): 0.01 mg/dL | GLC (9 h): 171.2 mg/dL | IP (9 h): 10.2 mg/dL | K (9 h): 4.1 meq/L | LDH (9 h): 105 IU/L | Na (9 h): 139.6 meq/L | PL (9 h): 135.8 mg/dL | RALB (9 h): 3.8 g/dL | TBIL (9 h): 0.048 mg/dL | TC (9 h): 87.6 mg/dL | TG (9 h): 34.8 mg/dL | TP (9 h): 5.4 g/dL | gamma-GTP (9 h): 1 IU/L | TERMINAL_BW (24 h): 202.8 g | APTT (24 h): 16.4 s | Bas (24 h): 0% | Eos (24 h): 0.8% | Fbg (24 h): 198.6 mg/dL | Hb (24 h): 13.3 g/dL | Ht (24 h): 40.7% | Lym (24 h): 83.8% | MCH (24 h): 20.6 pg | MCHC (24 h): 32.7% | MCV (24 h): 63 fL | Mono (24 h): 4.6% | Neu (24 h): 10.8% | PT (24 h): 12.4 s | Plat (24 h): 128.6 x10_4/uL | RBC (24 h): 648.4 x10_4/ul | Ret (24 h): 7.3% | WBC (24 h): 67.6 x10_2/uL | LIVER (24 h): 8.4 g | A/G (24 h): 2.5 | ALP (24 h): 1301.4 IU/L | ALT (24 h): 25.8 IU/L | AST (24 h): 61.4 IU/L | BUN (24 h): 13.6 mg/dL | CRE (24 h): 0.4 mg/dL | Ca (24 h): 11.8 mg/dL | Cl (24 h): 104 meq/L | DBIL (24 h): 0.01 mg/dL | GLC (24 h): 185.8 mg/dL | IP (24 h): 8.3 mg/dL | K (24 h): 4.1 meq/L | LDH (24 h): 66.4 IU/L | Na (24 h): 140.2 meq/L | PL (24 h): 128 mg/dL | RALB (24 h): 4 g/dL | TBIL (24 h): 0.042 mg/dL | TC (24 h): 74.2 mg/dL | TG (24 h): 46.4 mg/dL | TP (24 h): 5.5 g/dL | gamma-GTP (24 h): 0.6 IU/L
